Results: US20230094176A1, “COMPOUNDS AND METHODS FOR IMPROVING IMPAIRED ENDOGENOUS FIBRINOLYSIS USING HISTONE DEACETYLASE INHIBITORS” (Cereno Scientific AB, priority 2011, published 2023)
Where two headings read alike, the source gives them in different places.

Experiments:
[1] = test system: TNF-alpha suppressed t-PA production in HUVECs; test: Counter-acting TNF-alpha (0.1 ng/ml) suppression of t-PA in HUVEC; assay type: cell-based, human; conditions: for concentration completely normalizing TNF-alpha suppressed t-PA production / concentration partly reversing TNF-alpha suppression of t-PA production: TNF-alpha 0.1 ng/ml 48 h, compound last 24 h
Experimental: Human umbilical vein endothelial cells (HUVECs) were prepared and cultured as described in Example 1. Confluent HUVECs were exposed to low concentrations of TNF-alpha (0.1 ng/ml) (Sigma-Aldrich) for 24 h. Thereafter, medium was replaced by fresh EGM-2 containing TNF-alpha and low concentrations of belinostat (10 nM to 300 nM) and incubated for 24 h. After 24 h, cells and conditioned media were harvested. Total RNA was prepared and RNA and secreted protein quantified as in Example 1.
We have previously shown that proinflammatory cytokines e.g. TNF-alpha and IL-1b suppress t-PA production in endothelial cells. We then investigated if VPA could reverse a TNF-alpha suppressed t-PA response. Human umbilical vein endothelial cells (HUVECs) were prepared by collagenase treatment of fresh umbilical cords (Jaffe, E. A., et al. J Clin Invest 52, 2745-2756 (1973)) obtained from the maternity ward of the Sahlgrenska University hospital, Gothenburg, Sweden. Cells were cultured in EGM-2 medium (Lonza, Basel, Switzerland) and all experiments were performed in passage 1 of subcultivation. Confluent HUVECs were pre-treated with 0.1 ng/ml human recombinant TNF-alpha (Sigma-Aldrich) for 24 hours then exposed to optimal concentrations VPA in complete medium. After incubation with the VPA and TNF-alpha for an additional 24 hours, cells and conditioned media were harvested.
(§1) Total RNA was prepared using RNeasy Mini RNA kit (Qiagen, Hilden, Germany) and genomic DNA was removed using RNase-free DNase I set (Qiagen). Levels of t-PA mRNA were analyzed with real-time RT-PCR, performed on an Applied Biosystems 7500 Fast Real-Time PCR System using cDNA and Taqman reagents obtained from Applied Biosystems (Foster City, Calif., USA). Hypoxanthine phosphoribosyl transferase (HPRT, Assay number Hs99999909_m1, Applied Biosystems) was used as endogenous internal standard.
Endothelial cells in culture are known to constitutively secrete the majority of synthesized t-PA making conditioned media a suitable source for quantification of t-PA protein. Conditioned medium from cell cultures was collected, centrifuged (10,000×g, 10 min, 4° C.) to remove cell debris, transferred to fresh tubes and stored at −70° C. Concentrations of t-PA antigen in conditioned media were determined using the commercially available TriniLize t-PA antigen ELISA (Trinity Biotech, Bray, Ireland) according to the manufacturer's protocol.

[2] = test system: t-PA mRNA expression in human umbilical vein endothelial cells (HUVECs); test: In vitro dose response: t-PA mRNA (and protein) expression in HUVEC after 24 h; assay type: cell-based
Experimental: Human umbilical vein endothelial cells (HUVECs) were prepared by collagenase treatment of fresh umbilical cords (Jaffe, E. A., et al. J Clin Invest 52, 2745-2756 (1973)) obtained from the maternity ward of the Sahlgrenska University hospital, Gotheburg, Sweden. Cells were cultured in EGM-2 medium (Lonza, Basel, Switzerland) and all experiments were performed in passage 1 of subcultivation. Confluent HUVECs were exposed to 10 nM-10 μM of Vorinostat (Selleck Chemicals, Houston, Tex., USA) in complete medium for 24 h. After 24 h, cells and conditioned media were harvested.
as §1
Endothelial cells in culture are known to constitutively secrete the majority of synthesized t-PA making conditioned media a suitable source for quantification of t-PA protein. Conditioned medium from cell cultures was collected, centrifuged (10 000×g, 10 min, 4° C.) to remove cell debris, transferred to fresh tubes and stored at −70° C. Concentrations of t-PA antigen in conditioned media were determined using the commercially available TriniLize t-PA antigen ELISA (Trinity Biotech, Bray, Ireland) according to manufacturer's protocol.

[3] = test system: local release of t-PA from the endothelium; test: Intermediate endpoint study: in vivo t-PA release in man (perfused-forearm model, Substance P); parameters: species or system human; conditions: for increase of total amount of t-PA released (AUC): patients with stable angina pectoris, 2 weeks, daily oral dose: Vorinostat 10 mg, Belinostat 65 mg, Givinostat 2 mg, Panobinostat 0.5 mg, PCI-24781 2 mg, JNJ-26481585 0.2 mg, Mocetinostat 2 mg, SB939 0.4 mg, CXD101 10 mg
Experimental: The study comprises 16 patients with stable angina pectoris. Patients are investigated before and after oral treatment with 10 mg Vorinostat (Zolinza®, Merck & Co., Inc, NJ, USA) daily for 2 weeks. The study has a randomized, cross-over design and t-PA release capacity is investigated before and after treatment, with each individual serving as his/her own control
The capacity for t-PA release is investigated in the perfused-forearm model that we have developed, which is the only method that permits a direct measurement of the local release of t-PA from the endothelium (Hrafnkelsdottir, T., et al. Lancet 352, 1597-1598 (1998), Wall, U., et al. Blood 91, 529-537 (1998)). Since t-PA has a rapid hepatic clearance, it is impossible to infer endothelial release rates from plasma levels obtained from standard venous samples. With the invasive model, however, net forearm t-PA release rates are calculated from arterio-venous concentration gradients of t-PA after correction for forearm plasma flow. Acute t-PA release responses are induced by intra-arterial infusions of Substance P (Bachem, Bubendorf, Switzerland), and the amount and protein secretion profile is used as a measure of t-PA release capacity.
The study comprises 16 patients with stable angina pectoris and elevated serum levels of high-sensitivity C-reactive protein (hs-CRP) >3 mg/L. Patients are investigated before and after oral treatment with 100 mg valproic acid twice daily for 2 weeks. The study has a randomized, cross-over design and t-PA release capacity is investigated before and after treatment, with each individual serving as his/her own control.
The capacity for t-PA release is investigated in the perfused-forearm model that we have developed, which is the only method that permit a direct measurement of the local release of t-PA from the endothelium (Hrafnkelsdottir, T., et al. Lancet 352, 1597-1598 (1998), Wall, U., et al. Blood 91, 529-537 (1998). Since t-PA has a rapid hepatic clearance, it is impossible to infer endothelial release rates from plasma levels obtained from standard venous samples.
With the invasive model, however, net forearm t-PA release rates are calculated from arterio-venous concentration gradients of t-PA after correction for forearm plasma flow. Acute t-PA release responses are induced by intra-arterial infusions of Substance P (Bachem, Bubendorf, Switzerland), and the amount and protein secretion profile is used as a measure of t-PA release capacity.

[4] = HUVEC, present-tense Examples 12-18

O=C(/C=C/c1cccc(S(=O)(=O)Nc2ccccc2)c1)NO [Belinostat]
concentration completely normalizing TNF-alpha suppressed t-PA production ([1]; HUVEC): 200 nM | concentration partly reversing TNF-alpha suppression of t-PA production ([1]; HUVEC): 50 nM | concentrations needed to off-set the inhibition of TNF-alpha on t-PA expression ([1]; TNF-alpha treated endothelium): 0.05 to 0.2 µM | concentration at which a significant increase of t-PA mRNA levels was seen [2]: 10 nM | concentration of maximal effect on t-PA expression [2]: around 3 μM | increase of t-PA expression at maximal effect [2]: approximately 10 times | increase of total amount of t-PA released (AUC) [3]: approximately 50%

Cc1nn(C)cc1CN1CCC(c2ccc(C(=O)Nc3ccccc3N)cc2)CC1 [CXD101]
concentration completely normalizing TNF-alpha suppressed t-PA production [1, 4]: 300 nM | concentration partly reversing TNF-alpha suppression of t-PA production [1, 4]: 10 nM | concentration at which a significant increase of t-PA mRNA levels is seen ([2]; present-tense Examples 3-9): 10 nM | concentration of maximal effect on t-PA expression ([2]; present-tense Examples 3-9): around 3 μM | increase of t-PA expression at maximal effect ([2]; present-tense Examples 3-9): approximately 10 times | increase of total amount of t-PA released (AUC) [3]: approximately 50%

CCN(CC)Cc1ccc2cc(COC(=O)Nc3ccc(C(=O)NO)cc3)ccc2c1.Cl [Givinostat]
concentration completely normalizing TNF-alpha suppressed t-PA production [1, 4]: 100 nM | concentration partly reversing TNF-alpha suppression of t-PA production [1, 4]: 30 nM | concentration at which a significant increase of t-PA mRNA levels was seen [2]: 30 nM | concentration of maximal effect on t-PA expression [2]: 0.3 µM | increase of t-PA expression at maximal effect [2]: 10 times | concentration at which a significant increase of t-PA mRNA levels is seen ([2]; present-tense Examples 3-9): 10 nM | concentration of maximal effect on t-PA expression ([2]; present-tense Examples 3-9): around 0.3 μM | increase of t-PA expression at maximal effect ([2]; present-tense Examples 3-9): approximately 10 times | increase of total amount of t-PA released (AUC) [3]: approximately 50%

Cn1cc(CNCC2CCN(c3ncc(C(=O)NO)cn3)CC2)c2ccccc21 [JNJ-26481585, N-hydroxy-2-(4-((((1-methyl-1H-indol-3-yl)methyl)amino)methyl)piperidin-1-yl)pyrimidine-5-carboxamide]
concentration completely normalizing TNF-alpha suppressed t-PA production [1, 4]: 5 nM | concentration partly reversing TNF-alpha suppression of t-PA production [1, 4]: 1 nM | concentration at which a significant increase of t-PA mRNA levels was seen [2]: 3 nM | concentration of maximal effect on t-PA expression [2]: around 30 nM | increase of t-PA expression at maximal effect [2]: approximately 6 times | concentration at which a significant increase of t-PA mRNA levels is seen ([2]; present-tense Examples 3-9): 1 nM | concentration of maximal effect on t-PA expression ([2]; present-tense Examples 3-9): around 30 nM | increase of t-PA expression at maximal effect ([2]; present-tense Examples 3-9): approximately 10 times | increase of total amount of t-PA released (AUC) [3]: approximately 50%

Nc1ccccc1NC(=O)c1ccc(CNc2nccc(-c3cccnc3)n2)cc1 [Mocetinostat]
concentration completely normalizing TNF-alpha suppressed t-PA production [1, 4]: 300 nM | concentration partly reversing TNF-alpha suppression of t-PA production [1, 4]: 10 nM | concentration at which a significant increase of t-PA mRNA levels was seen [2]: 100 nM | concentration of maximal effect on t-PA expression [2]: around 3 μM | increase of t-PA expression at maximal effect [2]: approximately 15 times | concentration at which a significant increase of t-PA mRNA levels is seen ([2]; present-tense Examples 3-9): 10 nM | concentration of maximal effect on t-PA expression ([2]; present-tense Examples 3-9): around 3 μM | increase of t-PA expression at maximal effect ([2]; present-tense Examples 3-9): approximately 10 times | increase of total amount of t-PA released (AUC) [3]: approximately 50%

CN(C)Cc1c(C(=O)NCCOc2ccc(C(=O)NO)cc2)oc2ccccc12 [PCI-24781, 3-(dimethylaminomethyl)-N-[2-[4-(hydroxycarbamoyl)phenoxy]ethyl]-1-benzofuran-2-carboxamide]
concentration completely normalizing TNF-alpha suppressed t-PA production [1, 4]: 200 nM | concentration partly reversing TNF-alpha suppression of t-PA production [1, 4]: 10 nM | concentration at which a significant increase of t-PA mRNA levels was seen [2]: 100 nM | concentration of maximal effect on t-PA expression [2]: around 1 μM | increase of t-PA expression at maximal effect [2]: approximately 6 times | concentration at which a significant increase of t-PA mRNA levels is seen ([2]; present-tense Examples 3-9): 1 nM | concentration of maximal effect on t-PA expression ([2]; present-tense Examples 3-9): around 0.3 μM | increase of t-PA expression at maximal effect ([2]; present-tense Examples 3-9): approximately 10 times | increase of total amount of t-PA released (AUC) [3]: approximately 50%

CCCC(CCC)C(=O)O [VPA, valproic acid]
concentration achieving complete normalization of TNF-alpha suppressed t-PA mRNA ([1]; HUVEC, TNF-alpha 0.1 ng/ml, VPA additional 24 h): 0.35 mM | concentrations needed to reverse the effect of TNF-alpha on t-PA expression ([1]; TNF-suppressed cells): below 0.35 mM | increase of total amount of t-PA released ([3]; stable angina pectoris and hs-CRP >3 mg/L, 100 mg valproic acid orally twice daily for 2 weeks): approximately 50%

O=C(CCCCCCC(=O)Nc1ccccc1)NO [Vorinostat]
concentration completely normalizing TNF-alpha suppressed t-PA production ([1]; HUVEC): 300 nM | concentration partly reversing TNF-alpha suppression of t-PA production ([1]; HUVEC): 50 nM | concentration at which a significant increase of t-PA mRNA levels was seen [2]: 50 nM | concentration of maximal effect on t-PA expression [2]: around 3 μM | increase of t-PA expression at maximal effect [2]: approximately 7 times | increase of total amount of t-PA released (AUC) [3]: approximately 50%
